According to the supplement of paper PMC6045584:
± gives the standard deviation of the averaged measurements.

How the values were obtained:
TEMOZOLOMIDE [1] = compound: T1, Cn1nnc2c(C(N)=O)ncn2c1=O [TEMOZOLOMIDE]; assay: area under dose-response curve of surviving fraction (unscaled, Aref=0) (surviving fraction x log10(nM)); higher = more resistant; conditions: exposure time: 5 days; dose range 0.5-1000 nM
Method in brief: (§1)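 Three screens per tumour cell line were run in 384-well plates at eight inhibitor concentrations from 0.5 to 1000 nM over five days. Surviving fractions, from CellTiter-Glo luminescence normalised to DMSO-only wells, were fitted with 3-parameter logistic curves in the drc R package. The reported area under the curve is the unscaled activity area. It spans log10 dose, and Aref is 0.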

SORAFENIB = compound: CNC(=O)c1cc(Oc2ccc(NC(=O)Nc3ccc(Cl)c(C(F)(F)F)c3)cc2)ccn1 [SORAFENIB]; assay: as above; conditions: exposure time: 5 days; dose range 0.5-1000 nM
Method in brief: as §1

[2] = compound: C[C@@H](Oc1cc(-c2cnn(C3CCNCC3)c2)cnc1N)c1c(Cl)ccc(F)c1Cl; assay: as above; conditions: exposure time: 5 days; dose range 0.5-1000 nM
Method in brief: as §1

[3] = compound: CCn1c(C(=O)N(C2CC2)C2CC2)cc2c3c(ncn3C)c(Nc3cc(C)n(C)n3)nc21; assay: as above; conditions: exposure time: 5 days; dose range 0.5-1000 nM
Method in brief: as §1

OLAPARIB = compound: O=C(c1cc(Cc2n[nH]c(=O)c3ccccc23)ccc1F)N1CCN(C(=O)C2CC2)CC1 [OLAPARIB]; assay: as above; conditions: exposure time: 5 days; dose range 0.5-1000 nM
Method in brief: as §1

DASATINIB [4] = compound: T2, Cc1nc(Nc2ncc(C(=O)Nc3c(C)cccc3Cl)s2)cc(N2CCN(CCO)CC2)n1 [DASATINIB]; assay: as above; conditions: exposure time: 5 days; dose range 0.5-1000 nM
Method in brief: as §1

ABIRATERONE = compound: C[C@]12CC[C@H](O)CC1=CC[C@@H]1[C@@H]2CC[C@]2(C)C(c3cccnc3)=CC[C@@H]12 [ABIRATERONE]; assay: as above; conditions: exposure time: 5 days; dose range 0.5-1000 nM
Method in brief: as §1

MLN-4924 [5] = compound: T3, NS(=O)(=O)OC[C@@H]1C[C@@H](n2ccc3c(N[C@H]4CCc5ccccc54)ncnc32)C[C@@H]1O [MLN-4924]; assay: as above; conditions: exposure time: 5 days; dose range 0.5-1000 nM
Method in brief: as §1

[6] = compound: CNCc1ccc(-c2[nH]c3cc(F)cc4c3c2CCNC4=O)cc1; assay: as above; conditions: exposure time: 5 days; dose range 0.5-1000 nM
Method in brief: as §1

FORETINIB [7] = compound: T4, COc1cc2c(Oc3ccc(NC(=O)C4(C(=O)Nc5ccc(F)cc5)CC4)cc3F)ccnc2cc1OCCCN1CCOCC1 [FORETINIB]; assay: as above; conditions: exposure time: 5 days; dose range 0.5-1000 nM
Method in brief: as §1

XAV-939 = compound: Oc1nc(-c2ccc(C(F)(F)F)cc2)nc2c1CSCC2 [XAV-939]; assay: as above; conditions: exposure time: 5 days; dose range 0.5-1000 nM
Method in brief: as §1

[8] = compound: COc1cc2ncnc(Nc3ccc(F)c(Cl)c3)c2cc1NC(=O)/C=C/CN1CCCCC1; assay: as above; conditions: exposure time: 5 days; dose range 0.5-1000 nM
Method in brief: as §1

CRIZOTINIB [9] = compound: T5, C[C@@H](Oc1cc(-c2cnn(C3CCNCC3)c2)cnc1N)c1c(Cl)ccc(F)c1Cl [CRIZOTINIB]; assay: as above; conditions: exposure time: 5 days; dose range 0.5-1000 nM
Method in brief: as §1

TEMOZOLOMIDE [10] = compound: T1, TEMOZOLOMIDE; assay: surviving fraction relative to DMSO-only wells; higher = less growth inhibition; conditions: exposure time: 5 days
Method in brief: (§2)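 Surviving fraction is CellTiter-Glo luminescence divided by the median of wells given DMSO only. For this, log-phase tumour cell lines went into 384-well plates at 250–500 cells per well and, 24 hours later, into five days of continuous inhibitor exposure at 0.5, 1, 5, 10, 50, 100, 500 and 1000 nM. Lines were screened three times and retained only if replicate Pearson r >0.7 and median Z' >0.3.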

SOTRASTAURIN/AEB071 [11] = compound: T6, CN1CCN(c2nc(C3=C(c4c[nH]c5ccccc45)C(=O)NC3=O)c3ccccc3n2)CC1 [SOTRASTAURIN/AEB071]; assay: as above; conditions: exposure time: 5 days
Method in brief: as §2

DASATINIB [12] = compound: T2, DASATINIB; assay: as above; conditions: exposure time: 5 days
Method in brief: as §2

MLN-4924 [13] = compound: T3, MLN-4924; assay: as above; conditions: exposure time: 5 days
Method in brief: as §2

[14] = compound: CNCc1ccc(-c2[nH]c3cc(F)cc4c3c2CCNC4=O)cc1; assay: as above; conditions: exposure time: 5 days
Method in brief: as §2

FORETINIB [15] = compound: T4, FORETINIB; assay: as above; conditions: exposure time: 5 days
Method in brief: as §2

CRIZOTINIB [16] = compound: T5, CRIZOTINIB; assay: as above; conditions: exposure time: 5 days
Method in brief: as §2

SOTRASTAURIN/AEB071 [17] = compound: T6, SOTRASTAURIN/AEB071; assay: area under dose-response curve of surviving fraction (unscaled, Aref=0) (surviving fraction x log10(nM)); higher = more resistant; conditions: exposure time: 5 days; dose range 0.5-1000 nM
Method in brief: as §1

With HS57T LUNG the “area under dose-response curve” value (TEMOZOLOMIDE [1]) was 3.27, the “area under dose-response curve” value (SORAFENIB) was 3.44 and the “area under dose-response curve” value [2] was 2.97. For the same test system, the “area under dose-response curve” value [3] was 3.21, the “area under dose-response curve” value (OLAPARIB) was 3.54 and the “area under dose-response curve” value (DASATINIB [4]) was 1.87. For the same test system, the “area under dose-response curve” value (ABIRATERONE) was 3.71, the “area under dose-response curve” value (MLN-4924 [5]) was 2.38 and the “area under dose-response curve” value [6] was 3.17. The “area under dose-response curve” value (FORETINIB [7]) was 3.04, the “area under dose-response curve” value (XAV-939) was 3.24 and the “area under dose-response curve” value [8] was 3.17. The “area under dose-response curve” value (CRIZOTINIB [9]) was 3.12.
CCK81 LARGE INTESTINE gave a surviving fraction (TEMOZOLOMIDE [10]; 0.5 nM) of 0.766 ± 0.075, a surviving fraction (TEMOZOLOMIDE [10]; 1 nM) of 0.729 ± 0.06 and a surviving fraction (TEMOZOLOMIDE [10]; 5 nM) of 0.744 ± 0.041. The surviving fraction (TEMOZOLOMIDE [10]; 10 nM) was 0.771 ± 0.024, the surviving fraction (TEMOZOLOMIDE [10]; 50 nM) was 0.775 ± 0.083 and the surviving fraction (TEMOZOLOMIDE [10]; 100 nM) was 0.745 ± 0.048. The surviving fraction (TEMOZOLOMIDE [10]; 500 nM) was 0.789 ± 0.033, the surviving fraction (TEMOZOLOMIDE [10]; 1000 nM) was 0.817 ± 0.055 and the surviving fraction (SOTRASTAURIN/AEB071 [11]; 0.5 nM) was 0.811 ± 0.12. For the same test system, the surviving fraction (SOTRASTAURIN/AEB071 [11]; 1 nM) was 0.829 ± 0.13, the surviving fraction (SOTRASTAURIN/AEB071 [11]; 5 nM) was 0.892 ± 0.075 and the surviving fraction (SOTRASTAURIN/AEB071 [11]; 10 nM) was 0.814 ± 0.079. It also gave a surviving fraction (SOTRASTAURIN/AEB071 [11]; 50 nM) of 0.917 ± 0.0085, a surviving fraction (SOTRASTAURIN/AEB071 [11]; 100 nM) of 0.866 ± 0.038 and a surviving fraction (SOTRASTAURIN/AEB071 [11]; 500 nM) of 0.943 ± 0.088. For the same test system, the surviving fraction (SOTRASTAURIN/AEB071 [11]; 1000 nM) was 0.83 ± 0.064, the surviving fraction (DASATINIB [12]; 0.5 nM) was 0.942 ± 0.19 and the surviving fraction (DASATINIB [12]; 1 nM) was 0.774 ± 0.035. It also gave a surviving fraction (DASATINIB [12]; 5 nM) of 0.741 ± 0.13, a surviving fraction (DASATINIB [12]; 10 nM) of 0.744 ± 0.059 and a surviving fraction (DASATINIB [12]; 50 nM) of 0.577 ± 0.1. The surviving fraction (DASATINIB [12]; 100 nM) was 0.411 ± 0.1, the surviving fraction (DASATINIB [12]; 500 nM) was 0.0847 ± 0.02 and the surviving fraction (DASATINIB [12]; 1000 nM) was 0.0473 ± 0.012. It also gave a surviving fraction (MLN-4924 [13]; 0.5 nM) of 0.87 ± 0.11, a surviving fraction (MLN-4924 [13]; 1 nM) of 0.814 ± 0.12 and a surviving fraction (MLN-4924 [13]; 5 nM) of 0.704 ± 0.15. It also gave a surviving fraction (MLN-4924 [13]; 10 nM) of 0.794 ± 0.088, a surviving fraction (MLN-4924 [13]; 50 nM) of 0.867 ± 0.07 and a surviving fraction (MLN-4924 [13]; 100 nM) of 0.831 ± 0.059. The surviving fraction (MLN-4924 [13]; 500 nM) was 0.567 ± 0.066, the surviving fraction (MLN-4924 [13]; 1000 nM) was 0.473 ± 0.065 and the surviving fraction ([14]; 0.5 nM) was 0.829 ± 0.06. For the same test system, the surviving fraction ([14]; 1 nM) was 0.766 ± 0.13, the surviving fraction ([14]; 5 nM) was 0.861 ± 0.24 and the surviving fraction ([14]; 10 nM) was 0.719 ± 0.12. The surviving fraction ([14]; 50 nM) was 0.789 ± 0.041, the surviving fraction ([14]; 100 nM) was 0.803 ± 0.058 and the surviving fraction ([14]; 500 nM) was 0.914 ± 0.053. For the same test system, the surviving fraction ([14]; 1000 nM) was 0.783 ± 0.023, the surviving fraction (FORETINIB [15]; 0.5 nM) was 0.867 ± 0.085 and the surviving fraction (FORETINIB [15]; 1 nM) was 0.729 ± 0.084. It also gave a surviving fraction (FORETINIB [15]; 5 nM) of 0.719 ± 0.059, a surviving fraction (FORETINIB [15]; 10 nM) of 0.726 ± 0.13 and a surviving fraction (FORETINIB [15]; 50 nM) of 0.793 ± 0.065. The surviving fraction (FORETINIB [15]; 100 nM) was 0.757 ± 0.025, the surviving fraction (FORETINIB [15]; 500 nM) was 0.559 ± 0.043 and the surviving fraction (FORETINIB [15]; 1000 nM) was 0.338 ± 0.083. The surviving fraction (CRIZOTINIB [16]; 1 nM) was 0.854 ± 0.084, the surviving fraction (CRIZOTINIB [16]; 5 nM) was 0.776 ± 0.15 and the surviving fraction (CRIZOTINIB [16]; 10 nM) was 0.788 ± 0.087. For the same test system, the surviving fraction (CRIZOTINIB [16]; 50 nM) was 0.749 ± 0.11, the surviving fraction (CRIZOTINIB [16]; 100 nM) was 0.718 ± 0.028 and the surviving fraction (CRIZOTINIB [16]; 500 nM) was 0.62 ± 0.12. For the same test system, the surviving fraction (CRIZOTINIB [16]; 1000 nM) was 0.315 ± 0.053, the “area under dose-response curve” value (TEMOZOLOMIDE [1]) was 2.52 and the “area under dose-response curve” value (SOTRASTAURIN/AEB071 [17]) was 2.85. The “area under dose-response curve” value (DASATINIB [4]) was 1.86, the “area under dose-response curve” value (MLN-4924 [5]) was 2.47 and the “area under dose-response curve” value [6] was 2.66. For the same test system, the “area under dose-response curve” value (FORETINIB [7]) was 2.29 and the “area under dose-response curve” value (CRIZOTINIB [9]) was 2.36.
